Measurements published in ChEMBL document CHEMBL3751755, “Developing steroidal aromatase inhibitors-an effective armament to win the battle against breast cancer” (Eur J Med Chem, 2015).

What follows are compounds tested against T1, Aromatase (Homo sapiens, UniProt P11511). Details: not given.
T1 sequence (P11511 whole entry): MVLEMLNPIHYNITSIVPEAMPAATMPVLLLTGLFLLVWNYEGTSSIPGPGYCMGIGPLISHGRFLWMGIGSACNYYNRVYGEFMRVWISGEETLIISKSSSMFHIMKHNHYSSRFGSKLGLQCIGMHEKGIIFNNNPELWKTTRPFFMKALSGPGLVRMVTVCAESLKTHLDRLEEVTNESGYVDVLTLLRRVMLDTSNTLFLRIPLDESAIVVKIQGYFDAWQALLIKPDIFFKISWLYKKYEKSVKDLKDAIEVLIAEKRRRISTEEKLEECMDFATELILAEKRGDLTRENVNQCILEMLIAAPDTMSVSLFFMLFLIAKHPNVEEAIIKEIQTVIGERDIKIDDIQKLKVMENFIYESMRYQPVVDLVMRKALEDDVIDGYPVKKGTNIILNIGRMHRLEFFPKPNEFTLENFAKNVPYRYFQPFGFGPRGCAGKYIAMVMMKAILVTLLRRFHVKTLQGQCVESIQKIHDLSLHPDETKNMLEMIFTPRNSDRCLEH

Row | SMILES | Ki
1 | C[C@]12CC[C@H]3[C@@H]([C@H]4[C@@H](C5=CCCC[C@@]53C)C4(F)F)[C@@H]1CC[C@@H]2O | 5 nM
2 | C#C[C@H](OC(C)=O)[C@]12CCC(=O)C=C1C(=O)C[C@@H]1[C@@H]2CC[C@]2(C)C(=O)CC[C@@H]12 | 67000 nM
3 | C[C@]12C=CC(=O)C=C1C[C@@H](CCCc1ccc([N+](=O)[O-])cc1)[C@@H]1[C@@H]2CC[C@]2(C)C(=O)CC[C@@H]12 | 7 nM
4 | C[C@]12CCC(=O)C=C1C[C@H](CCc1ccccc1)[C@@H]1[C@@H]2CC[C@]2(C)C(=O)CC[C@@H]12 | 36 nM
5 | C[C@]12CCC(=O)C=C1C[C@@H](Cc1ccccc1)[C@@H]1[C@@H]2CC[C@]2(C)C(=O)CC[C@@H]12 | 18.9 nM
6 | C[C@]12CCCC=C1CC[C@@H]1[C@@H]2CC[C@]2(C)C(=O)[C@@H](Br)C[C@@H]12 | 455 nM
7 | C#C[C@@H](OC(C)=O)[C@@]12CCC(=O)C=C1C(=O)C[C@@H]1[C@@H]2CC[C@]2(C)C(=O)CC[C@@H]12 | 75000 nM
8 | CC(=O)SC1=C2CC[C@@H]3[C@H](CC[C@]4(C)C(=O)CC[C@@H]34)[C@@]2(C)CCC1=O | 36 nM
9 | C[C@]12C=CC(=O)C=C1C[C@@H](CCc1ccc([N+](=O)[O-])cc1)[C@@H]1[C@@H]2CC[C@]2(C)C(=O)CC[C@@H]12 | 7 nM
10 | C[C@]12CC[C@H]3[C@@H]([C@H](Cc4ccccc4)CC4=CC(=O)CC[C@@]43C)[C@@H]1CC[C@@H]2O | 36 nM
11 | CCSC1=C2CC[C@@H]3[C@H](CC[C@]4(C)C(=O)CC[C@@H]34)[C@@]2(C)CCC1=O | 36 nM
12 | C[C@]12CCCC=C1CC[C@@H]1[C@@H]2CC[C@]2(C)C(=O)[C@H](Br)C[C@@H]12 | 228 nM
13 | C[C@]12C=CC(=O)C=C1C[C@@H](CCCc1ccccc1)[C@@H]1[C@@H]2CC[C@]2(C)C(=O)CC[C@@H]12 | 7 nM
14 | C[C@]12CC[C@H]3[C@@H](CCC4=CCCC[C@@]43CO)[C@@H]1CC[C@@H]2O | 170 nM
15 | C[C@]12CCC(=O)C=C1C=C(c1ccccc1)[C@@H]1[C@@H]2CC[C@]2(C)C(=O)CC[C@@H]12 | 1420 nM
16 | C[C@]12CCCC=C1[C@@H]1[C@H]([C@@H]3[C@@H]2CC[C@]2(C)C(=O)CC[C@@H]32)C1(F)F | 5 nM
17 | C[C@]12CCC(=O)C=C1C[C@@H](CCc1ccccc1)[C@@H]1[C@@H]2CC[C@]2(C)C(=O)CC[C@@H]12 | 13.1 nM
18 | C[C@]12CCC(=O)C=C1C[C@H](Cc1ccccc1)[C@@H]1[C@@H]2CC[C@]2(C)C(=O)CC[C@@H]12 | 36 nM
19 | C[C@]12C=CC(=O)C=C1C[C@@H](CCc1ccccc1)[C@@H]1[C@@H]2CC[C@]2(C)C(=O)CC[C@@H]12 | 7 nM
20 | C[C@]12CC[C@H]3[C@@H](CCC4=CCCC[C@@]43C(F)F)[C@@H]1CCC2=O | 170 nM
21 | C[C@]12CCC(=O)C=C1C=C(CCc1ccccc1)[C@@H]1[C@@H]2CC[C@]2(C)C(=O)CC[C@@H]12 | 60.9 nM
22 | CSC1=C2CC[C@@H]3[C@H](CC[C@]4(C)C(=O)CC[C@@H]34)[C@@]2(C)CCC1=O | 36 nM
23 | C[C@]12CCC(=O)C=C1C=C(Cc1ccccc1)[C@@H]1[C@@H]2CC[C@]2(C)C(=O)CC[C@@H]12 | 60.9 nM
24 | C[C@]12C=CC(=O)C=C1C[C@@H](CCc1ccc(N)cc1)[C@@H]1[C@@H]2CC[C@]2(C)C(=O)CC[C@@H]12 | 7 nM
25 | CCCSC1=C2CC[C@@H]3[C@H](CC[C@]4(C)C(=O)CC[C@@H]34)[C@@]2(C)CCC1=O | 36 nM
26 | C[C@]12C=CC(=O)C=C1C[C@@H](Cc1ccccc1)[C@@H]1[C@@H]2CC[C@]2(C)C(=O)CC[C@@H]12 | 7 nM
27 | C[C@]12CCC(=O)C=C1[C@@H]1[C@H]([C@@H]3[C@@H]2CC[C@]2(C)C(=O)CC[C@@H]32)C1(F)F | 5 nM
28 | C[C@]12CCC(=O)C(OCc3ccccc3)=C1CC[C@@H]1[C@@H]2CC[C@]2(C)C(=O)CC[C@@H]12 | 38 nM

Molecular target: T1, Aromatase
Details: not given
Remark: another data set of the same source

Row | SMILES | Ki
29 | C[C@]12CCC(=O)C=C1CC[C@@H]1[C@@H]2CC[C@]2(C)C(=O)CC[C@@H]12 [ANDROSTENEDIONE] | 35 nM
30 | CCCCC1=C[C@@H]2[C@H](CC[C@]3(C)C(=O)CC[C@@H]23)[C@@]2(C)CCC(=O)C=C12 | 17 nM
31 | Cc1cc2c(cc1O)CC[C@@H]1[C@@H]2CC[C@]2(C)C(=O)CC[C@@H]12 | 100 nM
32 | C[C@]12CC[C@H]3[C@@H](CC[C@]45O[C@H]4C(=O)CC[C@]35C)[C@@H]1CCC2=O | 5000 nM
33 | CC(=O)O[C@H]1C[C@@H]2[C@H](CC[C@]3(C)C(=O)CC[C@@H]23)[C@@]2(C)CCCC=C12 | 12 nM
34 | C[C@]12C=CC(=O)C=C1C(c1ccc(O)cc1)=C[C@@H]1[C@@H]2CC[C@]2(C)C(=O)CC[C@@H]12 | 75 nM
35 | C[C@]12CC[C@H]3[C@@H](CC=C4C=CCC[C@@]43C)[C@@H]1CC[C@@H]2O | 58 nM

These compounds were tested against T1, Aromatase (assay: Inhibition of aromatase (unknown origin)). Details: not given.
Parameters: inhibition (INH): concentration or dose not given beside the values

Row | SMILES | Ki | IC50
36 | C[C@]12CC[C@H]3[C@@H](CCC4=CC(=O)CC[C@@]43[C@H]3CN3)[C@@H]1CC[C@@H]2O | 3.4 nM | –
37 | C[C@]12CC[C@H]3[C@@H](CCC4=CC(=O)CC[C@@]43[C@H]3CN3)[C@@H]1CCC2=O | 3.4 nM | –
38 | COC(=O)C1=C(C)NC(C)=C(C(=O)OC)C1C[C@H]1C[C@@H]2[C@H](CC[C@]3(C)C(=O)CC[C@@H]23)[C@@]2(C)C=CC(=O)C=C12 | – | 10000 nM
39 | CC1(C)C[C@@]2(C)C(=CC1=O)C(=O)C[C@@H]1[C@@H]2CC[C@]2(C)C(=O)CC[C@@H]12 | 25 nM | –
40 | CC1(C)C[C@@]2(C)C(=C(O)C1=O)C(=O)C[C@@H]1[C@@H]2CC[C@]2(C)C(=O)CC[C@@H]12 | 40 nM | –
41 | C[C@]12CC[C@H]3[C@@H](CCC4=CC(=O)CC[C@@]43[C@@H]3CN3)[C@@H]1CCC2=O | 3.4 nM | –
42 | CC(=O)O[C@H]1[C@@H]2[C@H](CC[C@]3(C)C(=O)CC[C@@H]23)[C@@]2(C)CCC(=O)C=C2[C@@H]1N=[N+]=[N-] | – | 400 nM
43 | C[C@]12CCC(=O)C(O)=C1C(=O)C[C@@H]1[C@@H]2CC[C@]2(C)C(=O)CC[C@@H]12 | 42 nM | –
44 | C[C@]12CC[C@H]3[C@@H](CCC4=CC(=O)CC[C@@]43[C@@H]3CN3)[C@@H]1CC[C@@H]2O | 3.4 nM | –

Same assay, conditions: human

Row | SMILES | inhibition (INH)
45 | C[C@]12CC[C@H]3[C@@H](CC[C@H]4CC(=O)C[C@H]5[C@@H](O)[C@]435)[C@@H]1CCC2=O | 40%
46 | CC(=O)O[C@@H]1[C@@H]2CC(=O)C[C@@H]3CC[C@@H]4[C@H](CC[C@]5(C)C(=O)CC[C@@H]45)[C@@]312 | 40%
47 | CC(=O)[C@@]1(C)CC[C@H]2[C@@H](CCC3=C(O)C(=O)CC[C@@]32C)C1CC#N (stereo not given in full) | 46.5%
48 | C[C@]12CC[C@H]3[C@@H](CC[C@H]4C[C@@]5(O)C[C@H]6[C@H](O5)[C@]436)[C@@H]1CCC2=O | 40%

The compounds below were run against T1, Aromatase (assay: Competitive inhibition of human aromatase extracted from placental microsomes by Dixon plot analysis in presence of [1beta-3H]androstenedione). Details: read-out: Ki.

Row | SMILES | Ki
49 | CC[C@]12CCC(=O)C=C1CC[C@@H]1[C@@H]2CC[C@]2(C)C(=O)CC[C@@H]12 | 8.2 nM

Same assay, conditions: read-out: Ki(app)

Row | SMILES | Ki
50 | CC(=O)O[C@]12CCCCC1=CC(=O)[C@H]1[C@@H]3CCC(=O)[C@@]3(C)CC[C@@H]12 | 1100 nM
